Bounds are passed on as bounds.

Consider 19 compounds from ChEMBL document CHEMBL5608229, “Innovative Multistage ML-QSAR Models for Malaria: From Data to Discovery” (ACS Med Chem Lett, 2024).

Series [1] has as its system Plasmodium falciparum. The series is described as follows: Antiplasmodial activity against […] Plasmodium falciparum NF54 assessed as parasite growth inhibition at 5 uM incubated for 48 hrs by luciferase based analysis relative to control. It is filed as functional.
The test system of series [2] is Plasmodium berghei. The series can be described thus: Antiplasmodial activity against […] Plasmodium berghei infected in mouse model assessed as parasite growth inhibition at 10 uM pre-infected mouse with parasite followed by blood collection from mouse and subsequent addition of compound in blood measured after 24 hrs by nano-luciferase based analysis relative to control. It is filed as functional. The following applies: read-out: INH.

In series [3] the test system is Plasmodium berghei. The series can be described thus: Antiplasmodial activity against asexual liver schizonts-stage Plasmodium berghei infected in human Huh-7 cells assessed as parasite growth inhibition at 10 uM pretreated parasite with compound for 1 hr followed by parasitic infection in cells for 46 hrs by bioluminescence assay relative to control. It is filed as functional.

Series [4] concerns Plasmodium falciparum. The series is described as follows: Antiplasmodial activity against asexual blood-stage CQ-sensitive Plasmodium falciparum 3D7 infected in RBC assessed as parasite growth reduction incubated for 72 hrs by SybrGreen dye based analysis. It counts as functional, organism-based. Particulars: 3D7, Erythrocyte.
The nature of series [5]: Cytotoxicity against African green monkey COS-7 cells incubated for 72 hrs by MTT assay. It is filed as toxicity, cell-based. Particulars: chlorocebus aethiops.
Series [6] in a line: Cytotoxicity against human HepG2 cells incubated for 72 hrs by MTT assay. It counts as toxicity, cell-based. For orientation: Tetrazolium assays rely on reduction of a dye to a coloured formazan, in cell work by metabolically active cells.
The test system of series [7] is Plasmodium falciparum. The series can be described thus: Antiplasmodial activity against asexual blood-stage CQ-sensitive Plasmodium falciparum 3D7 infected in RBC assessed as parasite growth inhibition at 5 uM incubated for 72 hrs by SybrGreen dye based analysis relative to control. It is filed as functional. Particulars: 3D7, Erythrocyte.
The subject of series [8] is Plasmodium falciparum. The series is described as follows: Antiplasmodial activity against asexual blood-stage multidrug-resistant Plasmodium falciparum Dd2 infected in RBC assessed as parasite growth inhibition at 5 uM incubated for 72 hrs by SybrGreen dye based analysis relative to control. It counts as functional. The following applies: Dd2, Erythrocyte.
Series [9] has as its system Plasmodium falciparum. The series can be described thus: Antiplasmodial activity against asexual blood-stage multidrug-resistant Plasmodium falciparum Dd2 infected in RBC assessed as parasite growth reduction incubated for 72 hrs by SybrGreen dye based analysis. It counts as functional, organism-based. Particulars: Dd2, Erythrocyte.
A short description of series [10]: Selectivity index, ratio of CC50 for African green monkey COS-7 cells to EC50 for asexual blood-stage CQ-sensitive Plasmodium falciparum 3D7 infected in RBC. It counts as toxicity. The following applies: read-out: Ratio CC50/EC50.
Series [11] can be described thus: Selectivity index, ratio of CC50 for human HepG2 cells to EC50 for asexual blood-stage chloroquine-sensitive Plasmodium falciparum 3D7 infected in RBC.

The inhibition is the drop in the measured response relative to a control, in per cent. Broadly, the EC50 is the concentration that produces a half-maximal response. Usually CC50 stands for the concentration at which the toxic effect on the cells reaches its halfway point. As to `c1ccc(C23CN4CCN(CC(C4)C2NCc2ccc4c(c2)OCCO4)C3)cc1` (configuration not stated), the inhibition at 5 µM with Plasmodium falciparum [1] was determined as 6%. The percent ookinete growth inhibition (ex vivo) at 10 µM in the series on Plasmodium berghei [2] amounted to 0%. The inhibition at 10 µM with Plasmodium berghei [3] worked out at 0%. The EC50 in the series with Plasmodium falciparum [4] is over 10 µM. Further, the CC50 at 72 h in series [5] and in series [6] was over 100 µM in each case.
Take `COCCCNCCCCOc1ccc2ccccc2c1Br`: the inhibition at 5 µM is at least 50% with Plasmodium falciparum [7], at least 50% with Plasmodium falciparum [8] and 51.3% in the series with Plasmodium falciparum [1]. Moreover, the percent ookinete growth inhibition (ex vivo) at 10 µM in the series on Plasmodium berghei [2] was 66.1%. Besides, the inhibition at 10 µM in the series on Plasmodium berghei [3] is 49.4%. Also, the results for the EC50 in the series with Plasmodium falciparum [4] and in the series with Plasmodium falciparum [9] were 3.04 µM and 1.12 µM, respectively. Further, the CC50 at 72 h in [5] was determined as 11 µM; in [6] it was 10.4 µM. The selectivity ratio in series [10] stood at 2.7; in series [11] it was 3.4.
As for `c1ccc2c(CCNC3CC4CCC3C4)c[nH]c2c1` (configuration not stated), in the series with Plasmodium falciparum [1], the inhibition at 5 µM turned out to be 11.5%. The inhibition at 10 µM in the series with Plasmodium berghei [3] is 0%. For the same compound, the EC50 in the series with Plasmodium falciparum [4] was over 10 µM. Also, the CC50 at 72 h in series [5] and in [6] was over 100 µM in each case.
On to `CCc1ccc(C2CC(=O)C3=C(C2)NC(C)=C(C(=O)OCCc2ccccc2)C3c2ccncc2)cc1` (configuration not stated), for which the inhibition at 5 µM with Plasmodium falciparum [1] was 14%. The percent ookinete growth inhibition (ex vivo) at 10 µM in the series with Plasmodium berghei [2] came out at 11%. Moreover, the inhibition at 10 µM in the series on Plasmodium berghei [3] turned out to be 92.2%. Moreover, the EC50 in the series with Plasmodium falciparum [4] was 13.5 µM. Further, the 50% cytotoxic concentration (CC50) at 72 h in series [5] was determined as 125 µM; in series [6] it was 54.4 µM. Moreover, the results for the selectivity ratio in [10] and in [11] were 9 and 4, respectively.
As to `c1ccc(CCN2CCC(NC34CC5CC(CC(C5)C3)C4)CC2)cc1`, the inhibition at 5 µM with Plasmodium falciparum [7] was over 90%; in the series on Plasmodium falciparum [8] it was over 90%; with Plasmodium falciparum [1] it was 86%. Also, in the series on Plasmodium berghei [2], the percent ookinete growth inhibition (ex vivo) at 10 µM was found to be 16%. Besides, the inhibition at 10 µM in the series with Plasmodium berghei [3] was 0%. Further, the concentration giving a half-maximal response (EC50) worked out at 1.78 µM with Plasmodium falciparum [4] and 0.43 µM in the series with Plasmodium falciparum [9]. Moreover, the figures for the CC50 at 72 h in series [5] and in [6] were 48.3 µM and 38.1 µM, respectively. For the same compound, the values for the selectivity ratio in series [10] and in series [11] were 27 and 21, respectively.
Take `Cc1ccc(Nc2nc(-c3ccccc3Cl)nc3ccccc23)cc1`: in the series on Plasmodium falciparum [1], the inhibition at 5 µM worked out at 1%. For the same compound, the percent ookinete growth inhibition (ex vivo) at 10 µM in the series on Plasmodium berghei [2] was 45.6%. Moreover, the EC50 in the series on Plasmodium falciparum [4] was over 10 µM. Also, the CC50 at 72 h in [5] turned out to be 42.8 µM; in series [6] it was 33.2 µM.
Take `C[C@H]1[C@H](OC(=O)CCC(=O)O)O[C@@H]2O[C@@]3(C)CC[C@H]4[C@H](C)CC[C@@H]1[C@@]24OO3` [ARTESUNATE]: the EC50 in the series with Plasmodium falciparum [4] and in the series with Plasmodium falciparum [9] was 0.002 µM throughout.
As to `c1ccc(C23CN4CCN(CC(C4)C2NCc2nc4ccccc4[nH]2)C3)cc1` (configuration not stated), the inhibition at 5 µM with Plasmodium falciparum [1] came out at 20%. Also, the percent ookinete growth inhibition (ex vivo) at 10 µM in the series with Plasmodium berghei [2] is 56%. Also, the inhibition at 10 µM in the series on Plasmodium berghei [3] worked out at 0%. Also, the EC50 in the series with Plasmodium falciparum [4] is over 10 µM. Also, the CC50 at 72 h in [5] and in [6] was over 100 µM throughout.
With `C=CCc1cc(CN2CCC3(CC2)CN(C)CCN3C)ccc1O`, the inhibition at 5 µM in the series on Plasmodium falciparum [7] is over 50%; with Plasmodium falciparum [8] it was over 50%; in the series with Plasmodium falciparum [1] it was 51%. In addition, the percent ookinete growth inhibition (ex vivo) at 10 µM in the series on Plasmodium berghei [2] is 5.43%. The inhibition at 10 µM with Plasmodium berghei [3] was found to be 0%. In addition, the EC50 with Plasmodium falciparum [4] came out at 1.49 µM; in the series on Plasmodium falciparum [9] it was 2.59 µM. Further, the CC50 at 72 h in [5] and in series [6] was over 100 µM in each case. Moreover, the selectivity ratio in series [10] and in series [11] was over 67 throughout.
In the case of `CCc1nc(N)nc(N)c1-c1ccc(Cl)cc1` [PYRIMETHAMINE], the EC50 with Plasmodium falciparum [4] was found to be 0.039 µM; in the series with Plasmodium falciparum [9] it was 6.01 µM.
With `Clc1ccc(-c2nc(Nc3ccc(I)cc3)c3ccccc3n2)cc1`, the inhibition at 5 µM in the series on Plasmodium falciparum [1] turned out to be 6%. Also, the percent ookinete growth inhibition (ex vivo) at 10 µM with Plasmodium berghei [2] turned out to be 44.7%. Moreover, the half-maximal effective concentration (EC50) in the series on Plasmodium falciparum [4] was over 10 µM. Besides, the figures for the CC50 at 72 h in series [5] and in [6] were 51.5 µM and 34.8 µM, respectively.
As for `CN(C)CCCN(CCCN(C)C)Cc1cccc2ccccc12`, the values for the inhibition at 5 µM in the series on Plasmodium falciparum [7], in the series with Plasmodium falciparum [8] and in the series with Plasmodium falciparum [1] were over 50%, over 50% and 33%, respectively. Further, in the series on Plasmodium berghei [2], the percent ookinete growth inhibition (ex vivo) at 10 µM is 3.26%. In addition, in the series on Plasmodium berghei [3], the inhibition at 10 µM stood at 0%. In addition, the EC50 in the series on Plasmodium falciparum [4] is 5.46 µM; with Plasmodium falciparum [9] it was 2.64 µM. Moreover, the CC50 at 72 h in series [5] and in series [6] was over 100 µM in each case. In addition, the selectivity ratio in series [10] and in [11] was over 18 in each case.
For `CCCOc1c(Br)cc(C2C3=C(CCCC3=O)NC3=C2C(=O)CCC3)cc1OC`, in the series with Plasmodium falciparum [1], the inhibition at 5 µM is 9.5%. Further, in the series with Plasmodium berghei [2], the percent ookinete growth inhibition (ex vivo) at 10 µM came to 56.8%. In addition, in the series on Plasmodium berghei [3], the inhibition at 10 µM is 6.96%. The EC50 in the series on Plasmodium falciparum [4] is over 10 µM. Also, the CC50 at 72 h in [5] was 56.4 µM; in series [6], 30.5 µM.
`CCN(CC)CCCC(C)Nc1ccnc2cc(Cl)ccc12` (configuration not stated) [CHLOROQUINE]: the EC50 in the series with Plasmodium falciparum [4] came out at 0.008 µM; with Plasmodium falciparum [9], 0.055 µM.
For `COc1cc2nc(NCCc3nc(=O)c4c(C)c(C)sc4[nH]3)nc(N)c2cc1OC`, the values for the inhibition at 5 µM with Plasmodium falciparum [7], in the series on Plasmodium falciparum [8] and in the series on Plasmodium falciparum [1] were at least 50%, at least 50% and 94%, respectively. Further, the percent ookinete growth inhibition (ex vivo) at 10 µM in the series on Plasmodium berghei [2] amounted to 65%. The inhibition at 10 µM with Plasmodium berghei [3] is 90.3%. In addition, the EC50 in the series on Plasmodium falciparum [4] is 1.38 µM; with Plasmodium falciparum [9], 3.67 µM. In addition, the values for the CC50 at 72 h in series [5] and in [6] were 12.3 µM and 13.6 µM, respectively. For the same compound, the selectivity ratio turned out to be 9 in series [10] and 9.9 in series [11].
For the compound `COc1cc2nnc(NCC3(N(C)C)CCCCC3)nc2cc1OC`, the inhibition at 5 µM is over 50% in the series with Plasmodium falciparum [7], over 50% in the series on Plasmodium falciparum [8] and 94% in the series with Plasmodium falciparum [1]. Further, the percent ookinete growth inhibition (ex vivo) at 10 µM in the series on Plasmodium berghei [2] came out at 65.3%. Moreover, the inhibition at 10 µM with Plasmodium berghei [3] was 0%. The EC50 turned out to be 0.65 µM with Plasmodium falciparum [4] and 2.65 µM in the series with Plasmodium falciparum [9]. The CC50 at 72 h in [5] came to 51 µM; in series [6] it was 93.1 µM. Further, the selectivity ratio in series [10] was determined as 78; in [11], 142.
Consider `Oc1c(CN2CCCCC2)cc(CN2CCCCC2)nc1-c1ccccc1`, for which the inhibition at 5 µM is over 50% in the series on Plasmodium falciparum [7], over 50% in the series on Plasmodium falciparum [8] and 51% in the series with Plasmodium falciparum [1]. The percent ookinete growth inhibition (ex vivo) at 10 µM in the series on Plasmodium berghei [2] turned out to be 0%. Moreover, the inhibition at 10 µM in the series with Plasmodium berghei [3] was 0%. Also, the EC50 in the series with Plasmodium falciparum [4] amounted to 1.55 µM; in the series with Plasmodium falciparum [9], 1.65 µM. Also, the CC50 at 72 h in series [5] and in series [6] was over 100 µM throughout. Besides, the selectivity ratio in [10] and in series [11] was over 64 throughout.
As to `c1ccc2c(CCNC34CC5CC(CC(C5)C3)C4)c[nH]c2c1`, in the series with Plasmodium falciparum [1], the inhibition at 5 µM is 12%. For the same compound, the inhibition at 10 µM with Plasmodium berghei [3] came out at 0%. The half-maximal effective concentration (EC50) in the series on Plasmodium falciparum [4] amounted to 11.8 µM. Further, the CC50 at 72 h in [5] stood at 77.3 µM; in series [6] it was 53.1 µM. Besides, the selectivity ratio in [10] is 7; in series [11], 4.5.
As for `COc1ccc(CN2CCCC(CO)(Cc3ccccc3)C2)c(C)c1C` (configuration not stated), the inhibition at 5 µM in the series on Plasmodium falciparum [1] amounted to 13.5%. Moreover, the percent ookinete growth inhibition (ex vivo) at 10 µM with Plasmodium berghei [2] was determined as 42.7%. Further, the inhibition at 10 µM with Plasmodium berghei [3] worked out at 73.9%. For the same compound, the EC50 in the series with Plasmodium falciparum [4] is over 10 µM. In addition, the values for the CC50 at 72 h in [5] and in series [6] were 50.4 µM and 44.1 µM, respectively.
